From US20080077999A1, “Using Nonhuman Animal Model, Method of Measuring Transcription Activity Method of Measuring Cell Quantity and Method of Measuring Tumor Volume” (Eisai R&D Management Co., Ltd., priority 2004, published 2008)

B1: IL4: human IL4 (Calbiochem, 407635), used as stimulus of STAT6-PLAP reporter cells (protein, UniProt P05112 25-153, looked up)
Interleukin-4: HKCDITLQEIIKTLNSLTEQKTLCTELTVTDIFAASKNTTEKETFCRAATVLRQFYSHHEKDTRCLGATAQQFHRHKQLIRFLKRLDRNLWGLAGLNSCPVKEANQSTLENFLERLKTIMREKYSKCSS

Experiments:
[1] = test system: transcriptional activity through STAT6 activation by IL4 stimulation; test: Test of inhibitory action in mouse air pouch model introduced with E9 cells (blood PLAP activity after IL4 stimulation); format: in vivo, CDF1 mouse; details: orally administered 20 mg/kg, 1 hour before IL4 injection into air pouch; plasma 24 hours after IL4
Procedure: 5% cytodex3 (Amersham Bioscience, 17-0485-01) solution and 2% CMC solution (Daiichi Kogyo Seiyaku Co., Ltd.) were prepared. More specifically, 5 g of cytodex3 was suspended in 100 ml of PBS (SIGMA, R8537) and sterilized by autoclaving. On the other hand, the 2% CMC solution was prepared by adding 2 g of CMC in 100 ml of PBS while stirring with a stirrer bar and followed by sterilization by autoclaving.
Then, E9 cells were subjected to trypsin-EDTA treatment to be removed from the wall of the vessel and the cells were suspended in DMEM to make 1.0×10^6 cells/ml. 0.2 g of cytodex3 was mixed with 1.0×10^7 cells/ml of E9 cells. More specifically, 4 ml of 5% cytodex3 solution was mixed with 10 ml of 1.0×10^6 cells/ml of cell suspension. Then, the cell/cytodex3 suspension was inoculated on a non-tissue culture plate (IWAKI, SH90-15) and cultured in a CO2 incubator. […]
After 24 hours, orbital blood drawing was conducted using a heparin-treated Terumo hematocrit capillary tube (TERUMO Corporation, VC-H075H). […] To inactivate endogenous alkaline phosphatase, the plasma sample was treated in a hot water bath at 65° C. for 10 minutes and then PLAP activity derived from E9 cells in the plasma was measured. […] Subsequently, while shielding light, the mixture was incubated at room temperature for 1 hour, followed by measurement of intensity of chemiluminescence using a plate reader (Perkin Elmer, ARVO).

[2] = test system: transcriptional activity through STAT6 activation by IL4 stimulation; details: in vitro; cited from earlier work
[3] = test system: E9 cell (HEK293 with STAT6-PLAP reporter plasmid and STAT6-expression vector plasmid); test: PLAP activity in culture supernatant of cells stably expressing STAT6-PLAP reporter plasmid and STAT6 expression vector plasmid upon human IL4 stimulation; format: cell-based; details: human IL4 final concentration 1 ng/ml, next day
Procedure: More specifically, the cloned cell was subjected to trypsin-EDTA treatment to be removed from the wall of the vessel and suspended in DMEM and cells were inoculated on a 96-well cell culture plate to be 1.0×10^4 cells/190 μl/well. On the next day, 10 μl of 20 ng/ml human IL4 (Calbiochem, 407635) was added to the culture medium at a final concentration of 1 ng/ml. On the next day, the culture supernatant was recovered and the PLAP activity in the culture supernatant was measured.
More specifically, 100 μl of PLAP buffer (0.28 M Na2CO3—NaHCO3 pH 10.0, 8 mM MgSO4) was added to a black plate for ELISA (Sumitomo Bakelite Co., Ltd., No. MS-8496K), and 10 μl of the culture supernatant which had been treated in a hot water bath at 65° C. for 10 minutes was added thereto. Then, 50 μl of Lumi-Phos 530 (Lumigen, Inc.) was added, followed by mixing. Subsequently, while shielding light, the mixture was incubated at room temperature for 1 hour, followed by measurement of intensity of chemiluminescence using a plate reader (Perkin Elmer, ARVO). […] Hereinafter, this clone is named E9 cell.

[4] = test system: E9 cells (STAT6-PLAP reporter); test: Mouse air pouch model introduced with E9 cells: plasma PLAP activity upon human IL4 stimulation; format: in vivo, CDF1 mouse; details: 1 ml of 3 ng/ml human IL4 injected into air pouch, plasma after 24 hours
Procedure: 5% cytodex3 (Amersham Bioscience, 17-0485-01) solution and 2% carboxymethylcellulose (hereinafter, also referred to as CMC) solution (Daiichi Kogyo Seiyaku Co., Ltd.) were prepared. More specifically, 5 g of cytodex3 was suspended in 100 ml of PBS (SIGMA, R8537) and sterilized in an autoclave. On the other hand, the 2% CMC solution was prepared by adding 2 g of CMC in 100 ml of PBS while stirring with a stirrer bar, followed by sterilization in the autoclave.
Then, the E9 cells were subjected to trypsin-EDTA treatment to be removed from the wall of the vessel and the cells were suspended in DMEM to be 1.0×10^6 cells/ml. 0.2 g of cytodex3 was mixed with 1.0×10^7 cells/ml E9 cells. More specifically, 4 ml of 5% cytodex3 solution was added to 10 ml of 1.0×10^6 cells/ml cell suspension. […]
Under anesthesia with diethyl ether (WAKO, 055-01155), 3 ml of air was introduced under the skin on the back of a CDF1 mouse (Charles River Japan) using a 5-ml syringe with a 27 G needle to make an air pouch. […] To inactivate endogenous alkaline phosphatases, the plasma sample was treated in a hot water bath at 65° C. for 10 minutes and then the PLAP activity derived from E9 cells in the plasma was measured. […] Subsequently, while shielding light, the mixture was incubated at room temperature for 1 hour, followed by measurement of intensity of chemiluminescence using a plate reader (Perkin Elmer, ARVO).

| Molecule | suppression of the PLAP activity activated by the IL4 stimulation as compared with the control group [1] [%] | inhibition of transcriptional activity through STAT6 activation by IL4 stimulation [2] | PLAP activity in culture supernatant upon IL4 stimulation compared to non-stimulating condition [3] | PLAP activity secreted in blood upon IL4 stimulation [4] |
| --- | --- | --- | --- | --- |
| Cl.Cl.Cl.Fc1ccc(-c2n[nH]cc2-c2ccc3ncc(-c4nccs4)n3c2)cc1 [test compound, 2-(6-[3-(4-fluorophenyl)-1H-4-pyrazolyl]imidazo[1,2-a]pyridin-3-yl)-1,3-thiazole trihydrochloride] | 94.1 | inhibit transcriptional activity through STAT6 activation |  |  |
| B1 |  |  | higher PLAP activity was induced | remarkable increase of PLAP activity |
